# Source: ChEMBL document CHEMBL5360672, “Identification of Novel Dual-Target Estrogen Receptor α Degraders with Tubulin Inhibitory Activity for the Treatment of Endocrine-Resistant Breast Cancer” (J Med Chem, 2023)
# Active and inactive are the calls of the source. No cut-off for these calls is given here.
# Target: T1, Estrogen receptor (Homo sapiens) (UniProt P03372)
# T1 sequence (whole entry): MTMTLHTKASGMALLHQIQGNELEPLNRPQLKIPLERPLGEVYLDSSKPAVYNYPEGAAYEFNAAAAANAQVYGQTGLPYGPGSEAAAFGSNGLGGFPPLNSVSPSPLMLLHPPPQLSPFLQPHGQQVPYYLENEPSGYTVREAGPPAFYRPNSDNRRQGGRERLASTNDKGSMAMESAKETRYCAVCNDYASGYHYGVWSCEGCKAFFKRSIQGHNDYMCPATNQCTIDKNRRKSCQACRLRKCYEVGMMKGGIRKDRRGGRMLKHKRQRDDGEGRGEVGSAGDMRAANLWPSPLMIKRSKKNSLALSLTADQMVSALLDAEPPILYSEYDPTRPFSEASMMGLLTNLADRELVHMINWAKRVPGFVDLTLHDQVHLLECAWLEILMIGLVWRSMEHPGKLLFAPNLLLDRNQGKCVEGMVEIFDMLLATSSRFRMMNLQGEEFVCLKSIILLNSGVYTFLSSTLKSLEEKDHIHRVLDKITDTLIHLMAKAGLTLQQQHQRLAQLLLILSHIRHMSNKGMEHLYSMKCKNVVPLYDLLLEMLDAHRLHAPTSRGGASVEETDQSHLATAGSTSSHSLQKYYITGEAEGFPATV
# Assay: Binding affinity to human ERalpha assessed as relative binding affinity incubated under vibration for 1 min followed by 2 hrs incubation under dark condition by fluorescence polarization assay relative to estradiol
# Settings: time 121.0 min
row,SMILES,RBA [%]
1,CCN(c1ccc(F)cc1)S(=O)(=O)C1CC2OC1C(c1ccc(NC(=O)CCCCC[Se]C#N)cc1)=C2c1ccc(O)cc1 (stereo not given),11.2
2,N#C[Se]CCCCCC(=O)Nc1ccc(C2=C(c3ccc(O)cc3)C3CC(S(=O)(=O)N(CC(F)(F)F)c4cccc(Cl)c4)C2O3)cc1 (stereo not given),4.4
3,CCN(c1ccc(OC)cc1)S(=O)(=O)C1CC2OC1C(c1ccc(NC(=O)CCCCC[Se]C#N)cc1)=C2c1ccc(O)cc1 (stereo not given),7.3
4,COc1ccc(N(CC(F)(F)F)S(=O)(=O)C2CC3OC2C(c2ccc(NC(=O)CCC[Se]C#N)cc2)=C3c2ccc(O)cc2)cc1 (stereo not given),0.46
5,CCN(c1ccc(OC)cc1)S(=O)(=O)C1CC2OC1C(c1ccc(NC(=O)CCCCCCC[Se]C#N)cc1)=C2c1ccc(O)cc1 (stereo not given),2.61

# Target: Estrogen receptor beta (Homo sapiens) (UniProt Q92731)
# Assay: Binding affinity to human ERbeta assessed as relative binding affinity incubated under vibration for 1 min followed by 2 hrs incubation under dark condition by fluorescence polarization assay relative to estradiol
# Settings: time 121.0 min
# Sequence of Estrogen receptor beta (Homo sapiens) (Q92731 whole entry): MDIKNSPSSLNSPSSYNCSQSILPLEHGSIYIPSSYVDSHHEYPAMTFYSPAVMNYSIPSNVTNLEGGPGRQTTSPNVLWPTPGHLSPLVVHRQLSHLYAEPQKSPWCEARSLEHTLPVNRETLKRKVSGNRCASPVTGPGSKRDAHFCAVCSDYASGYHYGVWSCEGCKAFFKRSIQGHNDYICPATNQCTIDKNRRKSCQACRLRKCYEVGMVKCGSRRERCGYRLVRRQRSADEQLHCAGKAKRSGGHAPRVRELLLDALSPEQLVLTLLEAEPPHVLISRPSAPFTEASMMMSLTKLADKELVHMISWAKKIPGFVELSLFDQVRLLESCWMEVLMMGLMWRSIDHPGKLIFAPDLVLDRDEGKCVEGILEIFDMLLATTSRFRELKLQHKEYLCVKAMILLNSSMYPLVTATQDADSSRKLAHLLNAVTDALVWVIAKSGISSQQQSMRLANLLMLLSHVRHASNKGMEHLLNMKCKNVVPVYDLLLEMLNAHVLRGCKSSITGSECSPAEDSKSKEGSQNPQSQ
row,SMILES,RBA [%]
1,CCN(c1ccc(F)cc1)S(=O)(=O)C1CC2OC1C(c1ccc(NC(=O)CCCCC[Se]C#N)cc1)=C2c1ccc(O)cc1 (stereo not given),0.07
2,N#C[Se]CCCCCC(=O)Nc1ccc(C2=C(c3ccc(O)cc3)C3CC(S(=O)(=O)N(CC(F)(F)F)c4cccc(Cl)c4)C2O3)cc1 (stereo not given),0.06
3,CCN(c1ccc(OC)cc1)S(=O)(=O)C1CC2OC1C(c1ccc(NC(=O)CCCCC[Se]C#N)cc1)=C2c1ccc(O)cc1 (stereo not given),0.01
4,COc1ccc(N(CC(F)(F)F)S(=O)(=O)C2CC3OC2C(c2ccc(NC(=O)CCC[Se]C#N)cc2)=C3c2ccc(O)cc2)cc1 (stereo not given),0.38
5,CCN(c1ccc(OC)cc1)S(=O)(=O)C1CC2OC1C(c1ccc(NC(=O)CCCCCCC[Se]C#N)cc1)=C2c1ccc(O)cc1 (stereo not given),0.1

# Species on record: Homo sapiens
# Assay: Selectivity ratio of relative binding affinity for human ERalpha to relative binding affinity to human ERbeta
# Settings: not given
row,SMILES,Selectivity ratio
1,CCN(c1ccc(F)cc1)S(=O)(=O)C1CC2OC1C(c1ccc(NC(=O)CCCCC[Se]C#N)cc1)=C2c1ccc(O)cc1 (stereo not given),159
2,N#C[Se]CCCCCC(=O)Nc1ccc(C2=C(c3ccc(O)cc3)C3CC(S(=O)(=O)N(CC(F)(F)F)c4cccc(Cl)c4)C2O3)cc1 (stereo not given),73.3
3,CCN(c1ccc(OC)cc1)S(=O)(=O)C1CC2OC1C(c1ccc(NC(=O)CCCCC[Se]C#N)cc1)=C2c1ccc(O)cc1 (stereo not given),730
4,COc1ccc(N(CC(F)(F)F)S(=O)(=O)C2CC3OC2C(c2ccc(NC(=O)CCC[Se]C#N)cc2)=C3c2ccc(O)cc2)cc1 (stereo not given),1.21
5,CCN(c1ccc(OC)cc1)S(=O)(=O)C1CC2OC1C(c1ccc(NC(=O)CCCCCCC[Se]C#N)cc1)=C2c1ccc(O)cc1 (stereo not given),26.1

# System: MCF7
# Assay: Antiproliferative activity against ERalpha positive human MCF7 cells assessed as inhibition of cell proliferation incubated for 72 hrs by CCK8 assay
# Type: functional, cell-based
# Settings: MCF7, 72 h
row,SMILES,IC50 [µM]
1,CCN(c1ccc(F)cc1)S(=O)(=O)C1CC2OC1C(c1ccc(NC(=O)CCCCC[Se]C#N)cc1)=C2c1ccc(O)cc1 (stereo not given),0.25
2,N#C[Se]CCCCCC(=O)Nc1ccc(C2=C(c3ccc(O)cc3)C3CC(S(=O)(=O)N(CC(F)(F)F)c4cccc(Cl)c4)C2O3)cc1 (stereo not given),1.09
3,CCN(c1ccc(OC)cc1)S(=O)(=O)C1CC2OC1C(c1ccc(NC(=O)CCCCC[Se]C#N)cc1)=C2c1ccc(O)cc1 (stereo not given),0.33
4,COc1ccc(N(CC(F)(F)F)S(=O)(=O)C2CC3OC2C(c2ccc(NC(=O)CCC[Se]C#N)cc2)=C3c2ccc(O)cc2)cc1 (stereo not given),2.95
5,CCN(c1ccc(OC)cc1)S(=O)(=O)C1CC2OC1C(c1ccc(NC(=O)CCCCCCC[Se]C#N)cc1)=C2c1ccc(O)cc1 (stereo not given),0.66

# System: T47D
# Assay: Antiproliferative activity against ERalpha positive human T47D cells assessed as inhibition of cell proliferation incubated for 72 hrs by CCK8 assay
# Type: functional, cell-based
# Settings: not given
row,SMILES,IC50 [µM]
1,CCN(c1ccc(F)cc1)S(=O)(=O)C1CC2OC1C(c1ccc(NC(=O)CCCCC[Se]C#N)cc1)=C2c1ccc(O)cc1 (stereo not given),3.84
2,N#C[Se]CCCCCC(=O)Nc1ccc(C2=C(c3ccc(O)cc3)C3CC(S(=O)(=O)N(CC(F)(F)F)c4cccc(Cl)c4)C2O3)cc1 (stereo not given),4.26
3,CCN(c1ccc(OC)cc1)S(=O)(=O)C1CC2OC1C(c1ccc(NC(=O)CCCCC[Se]C#N)cc1)=C2c1ccc(O)cc1 (stereo not given),6.66
4,COc1ccc(N(CC(F)(F)F)S(=O)(=O)C2CC3OC2C(c2ccc(NC(=O)CCC[Se]C#N)cc2)=C3c2ccc(O)cc2)cc1 (stereo not given),19.9
5,CCN(c1ccc(OC)cc1)S(=O)(=O)C1CC2OC1C(c1ccc(NC(=O)CCCCCCC[Se]C#N)cc1)=C2c1ccc(O)cc1 (stereo not given),18

# System: not listed separately
# Assay: Cytotoxicity against human MCF-10A cells assessed as inhibition of cell proliferation incubated for 72 hrs by CCK8 assay
# Type: toxicity, cell-based
# Settings: not given
row,SMILES,IC50 at 72 h [µM]
1,CCN(c1ccc(F)cc1)S(=O)(=O)C1CC2OC1C(c1ccc(NC(=O)CCCCC[Se]C#N)cc1)=C2c1ccc(O)cc1 (stereo not given),18.1
2,N#C[Se]CCCCCC(=O)Nc1ccc(C2=C(c3ccc(O)cc3)C3CC(S(=O)(=O)N(CC(F)(F)F)c4cccc(Cl)c4)C2O3)cc1 (stereo not given),49.1
3,CCN(c1ccc(OC)cc1)S(=O)(=O)C1CC2OC1C(c1ccc(NC(=O)CCCCC[Se]C#N)cc1)=C2c1ccc(O)cc1 (stereo not given),37.9
4,COc1ccc(N(CC(F)(F)F)S(=O)(=O)C2CC3OC2C(c2ccc(NC(=O)CCC[Se]C#N)cc2)=C3c2ccc(O)cc2)cc1 (stereo not given),> 100
5,CCN(c1ccc(OC)cc1)S(=O)(=O)C1CC2OC1C(c1ccc(NC(=O)CCCCCCC[Se]C#N)cc1)=C2c1ccc(O)cc1 (stereo not given),29.8

# System: not listed separately
# Assay: Selectivity index, ratio of IC50 for cytotoxicity against human MCF-10A cells to IC50 for antiproliferative activity against human MCF7 cells
# Type: toxicity, cell-based
# Settings: MCF-10A cells and MCF7 cells, read-out: Ratio IC50
row,SMILES,selectivity ratio
1,CCN(c1ccc(F)cc1)S(=O)(=O)C1CC2OC1C(c1ccc(NC(=O)CCCCC[Se]C#N)cc1)=C2c1ccc(O)cc1 (stereo not given),72.2
2,N#C[Se]CCCCCC(=O)Nc1ccc(C2=C(c3ccc(O)cc3)C3CC(S(=O)(=O)N(CC(F)(F)F)c4cccc(Cl)c4)C2O3)cc1 (stereo not given),45
3,CCN(c1ccc(OC)cc1)S(=O)(=O)C1CC2OC1C(c1ccc(NC(=O)CCCCC[Se]C#N)cc1)=C2c1ccc(O)cc1 (stereo not given),115
4,COc1ccc(N(CC(F)(F)F)S(=O)(=O)C2CC3OC2C(c2ccc(NC(=O)CCC[Se]C#N)cc2)=C3c2ccc(O)cc2)cc1 (stereo not given),> 33.9
5,CCN(c1ccc(OC)cc1)S(=O)(=O)C1CC2OC1C(c1ccc(NC(=O)CCCCCCC[Se]C#N)cc1)=C2c1ccc(O)cc1 (stereo not given),45.1

# System: not listed separately
# Assay: Antiproliferative activity against human Tamoxifen-resistant LCC2 cells assessed as inhibition of cell proliferation incubated for 72 hrs by CCK8 assay
# Type: functional, cell-based
# Settings: not given
row,SMILES,IC50 [µM]
1,CCN(c1ccc(F)cc1)S(=O)(=O)C1CC2OC1C(c1ccc(NC(=O)CCCCC[Se]C#N)cc1)=C2c1ccc(O)cc1 (stereo not given),2.64
2,N#C[Se]CCCCCC(=O)Nc1ccc(C2=C(c3ccc(O)cc3)C3CC(S(=O)(=O)N(CC(F)(F)F)c4cccc(Cl)c4)C2O3)cc1 (stereo not given),3.96
3,CCN(c1ccc(OC)cc1)S(=O)(=O)C1CC2OC1C(c1ccc(NC(=O)CCCCC[Se]C#N)cc1)=C2c1ccc(O)cc1 (stereo not given),5.8
4,COc1ccc(N(CC(F)(F)F)S(=O)(=O)C2CC3OC2C(c2ccc(NC(=O)CCC[Se]C#N)cc2)=C3c2ccc(O)cc2)cc1 (stereo not given),10.1
5,CCN(c1ccc(OC)cc1)S(=O)(=O)C1CC2OC1C(c1ccc(NC(=O)CCCCCCC[Se]C#N)cc1)=C2c1ccc(O)cc1 (stereo not given),13.4

# System: T47D
# Assay: Antiproliferative activity against human T47D cells harboring ERalpha D538G mutant assessed as inhibition of cell proliferation incubated for 72 hrs by CCK8 assay
# Type: functional, cell-based
# Settings: not given
row,SMILES,IC50 [µM]
1,CCN(c1ccc(F)cc1)S(=O)(=O)C1CC2OC1C(c1ccc(NC(=O)CCCCC[Se]C#N)cc1)=C2c1ccc(O)cc1 (stereo not given),2.43
2,N#C[Se]CCCCCC(=O)Nc1ccc(C2=C(c3ccc(O)cc3)C3CC(S(=O)(=O)N(CC(F)(F)F)c4cccc(Cl)c4)C2O3)cc1 (stereo not given),3.42
3,CCN(c1ccc(OC)cc1)S(=O)(=O)C1CC2OC1C(c1ccc(NC(=O)CCCCC[Se]C#N)cc1)=C2c1ccc(O)cc1 (stereo not given),4.76
4,COc1ccc(N(CC(F)(F)F)S(=O)(=O)C2CC3OC2C(c2ccc(NC(=O)CCC[Se]C#N)cc2)=C3c2ccc(O)cc2)cc1 (stereo not given),17.2
5,CCN(c1ccc(OC)cc1)S(=O)(=O)C1CC2OC1C(c1ccc(NC(=O)CCCCCCC[Se]C#N)cc1)=C2c1ccc(O)cc1 (stereo not given),7.35

# System: T47D
# Assay: Antiproliferative activity against human T47D cells harboring ERalpha Y537S mutant assessed as inhibition of cell proliferation incubated for 72 hrs by CCK8 assay
# Type: functional, cell-based
# Settings: not given
row,SMILES,IC50 [µM]
1,CCN(c1ccc(F)cc1)S(=O)(=O)C1CC2OC1C(c1ccc(NC(=O)CCCCC[Se]C#N)cc1)=C2c1ccc(O)cc1 (stereo not given),2.74
2,N#C[Se]CCCCCC(=O)Nc1ccc(C2=C(c3ccc(O)cc3)C3CC(S(=O)(=O)N(CC(F)(F)F)c4cccc(Cl)c4)C2O3)cc1 (stereo not given),3.76
3,CCN(c1ccc(OC)cc1)S(=O)(=O)C1CC2OC1C(c1ccc(NC(=O)CCCCC[Se]C#N)cc1)=C2c1ccc(O)cc1 (stereo not given),4.92
4,COc1ccc(N(CC(F)(F)F)S(=O)(=O)C2CC3OC2C(c2ccc(NC(=O)CCC[Se]C#N)cc2)=C3c2ccc(O)cc2)cc1 (stereo not given),11.7
5,CCN(c1ccc(OC)cc1)S(=O)(=O)C1CC2OC1C(c1ccc(NC(=O)CCCCCCC[Se]C#N)cc1)=C2c1ccc(O)cc1 (stereo not given),7.01

# Target: T1, Estrogen receptor (Homo sapiens)
# Assay: Induction of ERalpha degradation in human MCF7 cells at 5 uM incubated for 24 hrs by Western blot analysis relative to SeCN-OBHSA derivatives
# Type: cell-based
# Settings: not given
row,SMILES,Activity
1,CCN(c1ccc(F)cc1)S(=O)(=O)C1CC2OC1C(c1ccc(NC(=O)CCCCC[Se]C#N)cc1)=C2c1ccc(O)cc1 (stereo not given),Active
2,N#C[Se]CCCCCC(=O)Nc1ccc(C2=C(c3ccc(O)cc3)C3CC(S(=O)(=O)N(CC(F)(F)F)c4cccc(Cl)c4)C2O3)cc1 (stereo not given),Active
3,CCN(c1ccc(OC)cc1)S(=O)(=O)C1CC2OC1C(c1ccc(NC(=O)CCCCC[Se]C#N)cc1)=C2c1ccc(O)cc1 (stereo not given),Active
4,COc1ccc(N(CC(F)(F)F)S(=O)(=O)C2CC3OC2C(c2ccc(NC(=O)CCC[Se]C#N)cc2)=C3c2ccc(O)cc2)cc1 (stereo not given),Active
5,CCN(c1ccc(OC)cc1)S(=O)(=O)C1CC2OC1C(c1ccc(NC(=O)CCCCCCC[Se]C#N)cc1)=C2c1ccc(O)cc1 (stereo not given),Active
